The values that follow come from ChEMBL document CHEMBL3046844, “Synthesis of novel 4-thiazolidione derivatives as antibacterial agents against drug-resistant Staphylococcus epidermidis” (2013).

≈ marks a conversion by molar mass, not a printed value.

Format in all cases: functional
Test [1] has as its system Staphylococcus epidermidis. The test can be described thus: Antibacterial activity against methicillin-resistant Staphylococcus epidermidis 8354 clinical isolate assessed as growth inhibition after 12 hr by CLSI broth microdilution method. The following applies: Staphylococcus epidermidis, 8354, 12 h.
For test [2], the system named is Staphylococcus epidermidis. The test can be described thus: Antibacterial activity against methicillin-resistant Staphylococcus epidermidis 8311 clinical isolate assessed as growth inhibition after 12 hr by CLSI broth microdilution method. The following applies: Staphylococcus epidermidis, 8311, 12 h. (In general: Broth dilution looks for growth in wells or tubes with falling amounts of substance.)

The test system of test [3] is Staphylococcus aureus. The test can be described thus: Antibacterial activity against methicillin-resistant Staphylococcus aureus 8166 clinical isolate assessed as growth inhibition after 12 hr by CLSI broth microdilution method. The following applies: Staphylococcus aureus, 8166, 12 h.
Test [4] deals with Staphylococcus aureus. The test can be described thus: Antibacterial activity against methicillin-resistant Staphylococcus aureus 8282 clinical isolate assessed as growth inhibition after 12 hr by CLSI broth microdilution method. Conditions: Staphylococcus aureus, 8282, 12 h.
The test system of the next test is Salmonella. The test can be described thus: Antibacterial activity against Salmonella assessed as growth inhibition after 12 hr by CLSI broth microdilution method.
The next test deals with Escherichia coli. The test can be described thus: Antibacterial activity against Escherichia coli ATCC 25922 assessed as growth inhibition after 12 hr by CLSI broth microdilution method. Conditions: ATCC 25922, 12 h.
The test system of test [5] is Staphylococcus epidermidis. The test can be described thus: Antibacterial activity against Staphylococcus epidermidis RP62A assessed as growth inhibition after 12 hr by CLSI broth microdilution method.

In the case of `O=C(O)COc1ccc(/C=C2/S/C(=N\c3ccccc3Cl)N(c3ccccc3Cl)C2=O)cc1`, the MIC – broadly, the lowest concentration that inhibits growth of the organism – in test [1] was 3.13 µM (≈ 1.56 µg/mL); in test [2], 3.13 µM (≈ 1.56 µg/mL); with Staphylococcus aureus [3], 12.5 µM (≈ 6.24 µg/mL); with Staphylococcus aureus [4] it was 3.13 µM (≈ 1.56 µg/mL); in the test on Salmonella it was more than 200 µM; in the test on Escherichia coli it was more than 200 µM. In addition, in test [5], the MIC was 3.13 µM (≈ 1.56 µg/mL).

On to `O=C(O)COc1ccc(/C=C2/S/C(=N\c3ccc(F)cc3)N(c3ccc(F)cc3)C2=O)cc1`, for which the results for the MIC (with Salmonella; with Escherichia coli; in test [5]) were more than 200 µM, more than 200 µM and 25 µM (≈ 11.7 µg/mL), respectively.

On to `O=C(O)COc1ccc(/C=C2/S/C(=N\c3ccc(Br)cc3)N(c3ccc(Br)cc3)C2=O)cc1`, for which the MIC in test [1] was 3.13 µM (≈ 1.84 µg/mL); in test [2], 3.13 µM (≈ 1.84 µg/mL); in the test with Staphylococcus aureus [3], 6.25 µM (≈ 3.68 µg/mL); in the test on Staphylococcus aureus [4], 3.13 µM (≈ 1.84 µg/mL); in the test with Salmonella, more than 200 µM; in the test on Escherichia coli, more than 200 µM. Besides, the MIC in test [5] was found to be 3.13 µM (≈ 1.84 µg/mL).

For `O=C(O)COc1ccc(/C=C2/S/C(=N\c3cccc(Cl)c3)N(c3cccc(Cl)c3)C2=O)cc1`, the MIC was 3.13 µM (≈ 1.56 µg/mL) in test [1]; 3.13 µM (≈ 1.56 µg/mL) in test [2]; 12.5 µM (≈ 6.24 µg/mL) in the test on Staphylococcus aureus [3]; 3.13 µM (≈ 1.56 µg/mL) with Staphylococcus aureus [4]; more than 200 µM in the test on Salmonella; more than 200 µM with Escherichia coli. Also, the MIC in test [5] is 3.13 µM (≈ 1.56 µg/mL).

On to `O=C(O)COc1ccc(/C=C2/S/C(=N\c3ccc(Cl)cc3)N(c3ccc(Cl)cc3)C2=O)cc1`, for which the MIC was 1.57 µM (≈ 0.784 µg/mL) in test [1]; 1.57 µM (≈ 0.784 µg/mL) in test [2]; 6.25 µM (≈ 3.12 µg/mL) in the test with Staphylococcus aureus [3]; 3.13 µM (≈ 1.56 µg/mL) with Staphylococcus aureus [4]; more than 200 µM with Salmonella; more than 200 µM with Escherichia coli. For the same compound, the MIC in test [5] stood at 1.57 µM (≈ 0.784 µg/mL).

As to `COc1cc(/C=C2/S/C(=N\c3ccc(Cl)cc3)N(c3ccc(Cl)cc3)C2=O)ccc1OCC(=O)O`, the MIC is more than 200 µM with Salmonella, more than 200 µM with Escherichia coli and 6.25 µM (≈ 3.31 µg/mL) in test [5].

On to `O=C(O)COc1cccc(/C=C2/S/C(=N\c3ccc(Cl)cc3)N(c3ccc(Cl)cc3)C2=O)c1`, for which the MIC in the test with Salmonella was more than 200 µM; with Escherichia coli, more than 200 µM; in test [5] it was 25 µM (≈ 12.5 µg/mL).

For `CCc1ccccc1/N=C1\S/C(=C/c2ccc(OCC(=O)O)c(OC)c2)C(=O)N1c1ccccc1CC`, the MIC with Salmonella is more than 200 µM; with Escherichia coli, more than 200 µM; in test [5], 50 µM (≈ 25.8 µg/mL).

Turning to `O=C(O)c1ccc(/C=C2/S/C(=N\c3ccccc3)N(c3ccccc3)C2=O)cc1`, the MIC is more than 200 µM in the test on Salmonella, more than 200 µM with Escherichia coli and 50 µM (≈ 20 µg/mL) in test [5].

For `O=C(O)c1ccc(/C=C2/S/C(=N\c3ccc(F)cc3)N(c3ccc(F)cc3)C2=O)cc1`, the results for the MIC (in the test on Salmonella; in the test with Escherichia coli; in test [5]) were more than 200 µM, more than 200 µM and 25 µM (≈ 10.9 µg/mL), respectively.

For the compound `O=C(O)c1ccc(/C=C2/S/C(=N\c3ccc(Br)cc3)N(c3ccc(Br)cc3)C2=O)cc1`, the MIC with Salmonella is more than 200 µM; in the test with Escherichia coli, more than 200 µM; in test [5] it was 12.5 µM (≈ 6.98 µg/mL).

Take `O=C(O)c1ccc(/C=C2/S/C(=N\c3ccc(Cl)cc3)N(c3ccc(Cl)cc3)C2=O)cc1`: the MIC in test [1] is 3.13 µM (≈ 1.47 µg/mL); in test [2], 3.13 µM (≈ 1.47 µg/mL); with Staphylococcus aureus [3], 12.5 µM (≈ 5.87 µg/mL); in the test with Staphylococcus aureus [4], 3.13 µM (≈ 1.47 µg/mL); in the test on Salmonella it was more than 200 µM; with Escherichia coli it was more than 200 µM. Besides, the MIC in test [5] is 3.13 µM (≈ 1.47 µg/mL).

Regarding `O=C(O)c1ccc(COc2ccc(/C=C3/S/C(=N\c4ccc(Cl)cc4)N(c4ccc(Cl)cc4)C3=O)cc2)cc1`, the MIC (in the test with Salmonella; in the test with Escherichia coli; in test [5]) was more than 200 µM each time.

For `O=C(O)COc1ccc(/C=C2/S/C(=N\c3ccccc3)N(c3ccccc3)C2=O)cc1`, the values for the MIC (in the test with Salmonella; with Escherichia coli; in test [5]) were more than 200 µM, more than 200 µM and 100 µM (≈ 43 µg/mL), respectively.

On to `CC1(C)S[C@@H]2[C@H](NC(=O)[C@H](N)c3ccccc3)C(=O)N2[C@H]1C(=O)O` [AMPICILLIN], for which the MIC in the test on Salmonella was more than 200 µM; in the test on Escherichia coli, more than 200 µM; in test [5], 11.5 µM (≈ 4.02 µg/mL).

Turning to `C[C@H]1COc2c(N3CCN(C)CC3)c(F)cc3c(=O)c(C(=O)O)cn1c23` [LEVOFLOXACIN], the MIC (in test [1]; in test [2]; in the test on Staphylococcus aureus [3]; in the test on Staphylococcus aureus [4]) was 22.1 µM (≈ 7.99 µg/mL) each time.

Consider `COc1cccc(OC)c1C(=O)N[C@@H]1C(=O)N2[C@@H]1SC(C)(C)[C@@H]2C(=O)O` [METHICILLIN], for which the MIC in test [1] is 65.7 µM (≈ 25 µg/mL); in test [2], 65.7 µM (≈ 25 µg/mL); with Staphylococcus aureus [3] it was 65.7 µM (≈ 25 µg/mL); with Staphylococcus aureus [4], 65.7 µM (≈ 25 µg/mL); with Salmonella, more than 200 µM; in the test on Escherichia coli, more than 200 µM. In addition, the MIC in test [5] worked out at 5.26 µM (≈ 2 µg/mL).
